Data on seven compounds can be found in PMC11009625, “Antibiotic class with potent in vivo activity targeting lipopolysaccharide synthesis in Gram-negative bacteria” (Proceedings of the National Academy of Sciences of the …, 2024).

Data set [1] deals with E. coli ATCC 25922. Description: MIC (CLSI broth microdilution), wild-type E. coli. Format: cell-based. As to conditions: Escherichia coli, ATCC25922. The protocol: (§1) Minimum inhibitory concentration (MIC) values were determined according to the Clinical Laboratory Standards Institute guidelines. Frequency of resistance was determined by plating ~5 × 10^8 bacterial cells on agar-solidified media plates containing test compound at concentrations corresponding to four times the measured solid-media MIC of the strains. Colonies were counted after 24 h, restreaked onto media containing the same concentration of compound, and the MIC remeasured against the assayed compound. Genomic DNA from isolated clones was sequenced by paired-end sequencing on an Illumina MiSeq device. Complete experimental details available in SI Appendix. […]
(§2) Minimum inhibitory concentration (MIC) determination. Broth microdilution and agar dilution
(§3) MIC assays were conducted according to CLSI guidelines (M07-2012). Appropriate inoculation
(§4) suspension density was assessed using a Sensititre Nephelometer with a Sensititre 0.5
(§5) McFarland Standard. […]

In data set [2] the test system is E. coli ATCC 25922 ΔtolC efflux mutant. Description: MIC, E. coli efflux mutant. The data set is classed as cell-based. The protocol:
as §1, §2, §3

The subject of data set [3] is K. pneumoniae ATCC 13883. Description: MIC, K. pneumoniae, with and without 50% human serum. The data set is classed as cell-based. The protocol: as §1, §2, §3, §4
McFarland Standard. Serum MICs were conducted in 50% heat-inactivated pooled human

Data set [4] can be described thus: in vitro. The data set is classed as cell-based. The protocol: Minimum inhibitory concentration (MIC) determination. Broth microdilution and agar dilution MIC assays were conducted according to CLSI guidelines (M07-2012). Appropriate inoculation suspension density was assessed using a Sensititre Nephelometer with a Sensititre 0.5 McFarland Standard. Serum MICs were conducted in 50% heat-inactivated pooled human serum (Sigma-Aldrich). Serum was heated to 56 °C for one hour and then filtered using a 0.2 µm […]
Strain construction. The efflux-defective P. mirabilis strain EN1490 was constructed using EZ-Tn5 <KAN-2> Transposome mutagenesis with TypeOne Restriction Inhibitor. Approximately 3000 independent clones were screened for increased susceptibility to chloramphenicol (8 mg/L), yielding 2 independent clones with insertions in the gene tolC. […]

In data set [5] the test system is HepG2 cells. Description: HepG2 cytotoxicity (72 h). The data set is classed as cell-based. The protocol: (§6) Thermodynamic solubility was assessed by dissolving 2 to 3 mg of test compound to equilibrium in 100 mM KPO4-buffer, pH 7.4. The metabolic stability assay was performed in the presence of human and mouse liver microsomes by measurement of test compounds disappearance over time (60 min). The plasma protein binding assay, including stability estimation, was performed using the RED devices (Thermo Fisher Scientific) in the presence of human and mouse plasma. All samples from the in vitro ADME studies were quantified by liquid chromatography-triple quadrupole mass spectrometry (LC–MS/MS). The assays were performed as previously described ([36]) and the details are available in SI Appendix. Cytotoxicity was assessed by incubation of test compounds in the presence of HepG2 cells for 72 h as previously described ([37]).

Data set [6] deals with Eco MG1655 ∆tolC (EN243). Description: MIC, efflux-defective parental strain EN243. As to conditions: Escherichia coli, MG1655, read-out: MIC EN243. Format: cell-based, E. coli. The protocol: as §1, §2, §3, §4, §5
Data set [7] can be described thus: Plasma protein binding (RED device). The data set is classed as in vitro ADME. The settings on record: plasma (50% plasma, 50% isotonic buffer), pH 7.4; human plasma. The protocol: as §6
Plasma protein binding and plasma stability in human and animal plasma. Pooled,
anonymized human plasma was provided by Uppsala Academic Hospital and was collected from
two donors (non-smoking) (citric acid). In brief, 0.2 ml of the plasma (50% plasma, 50% isotonic
buffer) test solution (typically 10 μM final compound concentration) was transferred to the
membrane tube in the RED insert (ThermoFisher Scientific). 0.35 ml isotonic phosphate buffer
pH 7.4 was added to the other side of the membrane. The 96-well base plate was then sealed
with an adhesive plastic film (Scotch Pad) to prevent evaporation. The sample was incubated
with rapid rotation (900 rpm) on a Kisker rotational incubator at 37°C for 4 h to achieve
equilibrium. A stability test of the test solution was prepared (to allow detection of drug
degradation), 100 μL of the plasma test solution (in a plastic vial or on a sealed plate) was
incubated at 37°C for 4 h (or as long as the dialysis time). The plasma test solution was frozen
directly after the administration to prevent any degradation. Prior to LC-MS/MS analysis the
plasma and buffer sample were treated with the addition of Methanol (1:3) containing Warfarin
as internal standard to precipitate proteins. The standard curve was created using the plasma
standard. The plate is then sealed, centrifuged and the supernatant is analysed by liquid
chromatography coupled to triple quadrupole mass spectrometry (LC-MS/MS). […]
Liquid chromatography coupled to triple quadrupole mass spectrometry (LC-MS/MS). The test
compounds were optimized on a Waters Acquity UPLC XEVO TQ-S micro system (Waters Corp.)
operating in multiple reaction monitoring (MRM) mode with positive or negative electrospray
ionization. Compounds were optimized by using the QuanOptimize software (Waters Corp.).
For chromatographic separation, a C18 BEH 1.7 µm column was used, with a general gradient of
1% to 90% of mobile phase B over a total running time of 2 min. Mobile phase A consisted of
5% acetonitrile and 0.1% formic acid in purified water, and mobile phase B of 0.1% formic acid
in 100% acetonitrile. The flow rate was set to 0.5 ml/min and 5 µL of the sample was injected.

Where [8] appears, read: read-out: MIC E. coli ATCC 25922 Wild-type.
[9] abbreviates: Klebsiella pneumoniae, ATCC13883, read-out: MIC K. pneumoniae ATCC 13883 Wild-type.
[10] abbreviates: Homo sapiens, HepG2, 72 h, read-out: HepG2 viability IC50, 72 h.
[11] abbreviates: Klebsiella pneumoniae, ATCC13883, read-out: MIC K. pneumoniae ATCC 13883 In 50% human serum.
The mark [12] stands for this setting: ATCC 25922 (Table S4), read-out: MIC E. coli EN0001.

In brackets after ≈: the same amount, converted by molar mass. Like-named read-outs stand apart in the source and are kept apart here.

In the case of `CC(=O)N1CCc2cc(S(=O)(=O)N3CCN(c4cccc(C(F)(F)F)c4)CC3)ccc21` [AZ1, reference compound], the MIC in data set [1] (setting [8]) is over 64 µg/mL; in data set [3] (setting [9]), over 64 µg/mL; in data set [6], 0.125 µg/mL (≈ 0.276 µM). For the same compound, the “MIC E. coli ATCC 25922 ΔtolC efflux mutant” value in data set [2] was determined as 2 mg/L (≈ 4.41 µM). This compound showed a hemolysis in data set [4] of 2.1%. The IC50 in data set [5] (setting [10]) is 22.5 µM.
On to `CN(c1ccc(CNCCN)cc1C(=O)Nc1ccc(S(=O)(=O)N2CCN(c3cc(Cl)cc(Cl)c3)CC2)cc1)S(C)(=O)=O` [EBL-3025], for which the MIC in data set [1] (setting [8]) came out at 1 µg/mL (≈ 1.49 µM); in data set [3] (setting [11]), 0.5 µg/mL (≈ 0.747 µM); in data set [3] (setting [9]) it was 0.5 µg/mL (≈ 0.747 µM). The “MIC E. coli ATCC 25922 ΔtolC efflux mutant” value in data set [2] is at most 0.125 mg/L. For the same compound, the hemolysis in data set [4] was 1.98%. In data set [5] (setting [10]), the IC50 amounted to 49 µM. Besides, the fraction unbound at 4 h, 10 µM in data set [7] worked out at 0.001.
With `Cc1cc(C#N)nc(N2CCN(S(=O)(=O)c3ccc(NC(=O)c4ccccc4N(C)S(C)(=O)=O)cc3)CC2)n1` [EBL-3339], the results for the MIC in data set [1] (setting [8]), in data set [3] (setting [11]) and in data set [3] (setting [9]) were 1 µg/mL (≈ 1.76 µM), 2 µg/mL (≈ 3.51 µM) and 0.5 µg/mL (≈ 0.878 µM), respectively. Also, the “MIC E. coli ATCC 25922 ΔtolC efflux mutant” value in data set [2] is reported as at most 0.125 mg/L. Moreover, the hemolysis in data set [4] came to 0.05%. Besides, the IC50 in data set [5] (setting [10]) is 29 µM. Further, in data set [7], the fraction unbound at 4 h, 10 µM was 0.0054.
`Cc1cc(C#N)nc(N2CCN(S(=O)(=O)c3ccc(NC(=O)c4cc(CNCCCN)ccc4N(C)S(C)(=O)=O)cc3)CC2)n1.Cl.Cl` [EBL-3599]: the MIC in data set [1] (setting [12]) was 2 µg/mL; in data set [1] (setting [8]), 2 µg/mL; in data set [3] (Klebsiella pneumoniae, ATCC13883; read-out: MIC K. pneumoniae ATCC 13883 In 50% human serum), 0.25 µg/mL; in data set [3] (Klebsiella pneumoniae, ATCC13883; read-out: MIC K. pneumoniae ATCC 13883 Wild-type), 1 µg/mL. For the same compound, the “MIC E. coli ATCC 25922 ΔtolC efflux mutant” value in data set [2] was at most 0.125 mg/L. In addition, the hemolysis in data set [4] came to 0.06%. Moreover, the IC50 in data set [5] (Homo sapiens, HepG2, 72 h, read-out: HepG2 viability IC50) amounted to 55 µM. Further, the fraction unbound at 4 h, 10 µM in data set [7] turned out to be 0.02.
With `Cc1cc(C#N)nc(N2CCN(S(=O)(=O)c3ccc(NC(=O)c4cc(CN5CC(CN)C5)ccc4N(C)S(C)(=O)=O)cc3)CC2)n1` [EBL-3647], the MIC was 2 µg/mL (≈ 2.99 µM) in data set [1] (setting [12]), 2 µg/mL (≈ 2.99 µM) in data set [1] (setting [8]), 0.25 µg/mL (≈ 0.374 µM) in data set [3] (setting [11]) and 0.5 µg/mL (≈ 0.749 µM) in data set [3] (setting [9]). Further, the “MIC E. coli ATCC 25922 ΔtolC efflux mutant” value in data set [2] was at most 0.125 mg/L. The hemolysis in data set [4] is 0.13%. For the same compound, the IC50 in data set [5] (setting [10]) was determined as 54 µM. The fraction unbound at 4 h, 10 µM in data set [7] was 0.025.
In the case of `CN(c1ccccc1C(=O)Nc1ccc(S(=O)(=O)N2CCCCC2)cc1)S(C)(=O)=O` [JEDI-852], the MIC was over 64 µg/mL in data set [1] (setting [8]), over 64 µg/mL in data set [3] (setting [9]) and 4 µg/mL (≈ 8.86 µM) in data set [6]. In addition, in data set [2], the “MIC E. coli ATCC 25922 ΔtolC efflux mutant” value was determined as 4 mg/L (≈ 8.86 µM). In data set [4], this compound gave a hemolysis of 0.03%. Further, the IC50 in data set [5] (setting [10]) was over 32 µM; in data set [5] (read-out: HepG2 viability IC50, 72 h) it was over 64 µM.
Regarding `CN(c1ccccc1C(=O)Nc1ccc(S(=O)(=O)N2CCN(c3cccc(C(F)(F)F)c3)CC2)cc1)S(C)(=O)=O` [JEDI-1444], the MIC was found to be 2 µg/mL (≈ 3.35 µM) in data set [1] (setting [8]), 32 µg/mL (≈ 53.6 µM) in data set [3] (setting [11]), 2 µg/mL (≈ 3.35 µM) in data set [3] (setting [9]) and 0.016 µg/mL (≈ 0.0268 µM) in data set [6]. The “MIC E. coli ATCC 25922 ΔtolC efflux mutant” value in data set [2] was at most 0.125 mg/L. The hemolysis in data set [4] is 0.02%. In data set [5] (setting [10]), the IC50 is over 64 µM. The fraction unbound at 4 h, 10 µM in data set [7] amounted to 0.001.

What is called MIC is the smallest concentration in the dilution series that meets the test's criterion for growth inhibition. Broadly, the IC50 is the concentration needed to halve the response being measured. In general, fraction unbound refers to free concentration divided by total concentration. A high value points to much free substance.
